The values below come from patent publication EP3436445B1, “HISTONE DEMETHYLASE INHIBITORS” (Celgene Quanticel Research, Inc., priority 2016, dated 2017).

The experiment concerns the target T1, Jarid1B (Homo sapiens, UniProt Q9UGL1).
T1 construct: purchased BPS Bioscience (or custom made by MolecularThroughput) 50121
T1 sequence (Q9UGL1 2-751): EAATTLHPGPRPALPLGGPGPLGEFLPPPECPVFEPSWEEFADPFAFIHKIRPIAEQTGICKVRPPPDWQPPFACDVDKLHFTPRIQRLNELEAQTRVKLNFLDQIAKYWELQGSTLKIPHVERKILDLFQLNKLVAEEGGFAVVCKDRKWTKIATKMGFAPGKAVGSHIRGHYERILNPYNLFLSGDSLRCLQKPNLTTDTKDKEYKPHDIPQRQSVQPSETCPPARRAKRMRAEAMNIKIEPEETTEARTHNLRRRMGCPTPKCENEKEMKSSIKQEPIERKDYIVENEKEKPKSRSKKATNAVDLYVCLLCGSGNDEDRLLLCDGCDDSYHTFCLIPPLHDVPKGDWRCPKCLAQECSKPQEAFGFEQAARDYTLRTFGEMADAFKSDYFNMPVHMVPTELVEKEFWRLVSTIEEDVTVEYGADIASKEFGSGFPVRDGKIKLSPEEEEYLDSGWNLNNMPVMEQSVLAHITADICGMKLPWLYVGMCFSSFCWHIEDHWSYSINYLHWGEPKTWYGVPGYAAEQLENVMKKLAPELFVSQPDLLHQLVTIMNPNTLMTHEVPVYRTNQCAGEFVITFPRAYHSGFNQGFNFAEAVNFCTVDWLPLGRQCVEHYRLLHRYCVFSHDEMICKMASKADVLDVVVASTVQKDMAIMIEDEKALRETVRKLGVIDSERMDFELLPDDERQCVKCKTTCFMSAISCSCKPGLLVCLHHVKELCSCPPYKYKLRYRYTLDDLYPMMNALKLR
The experiment can be described thus: Jarid1B in vitro enzyme inhibition assay (TR-FRET). In kind it is biochemical. The conditions noted are these: Table 5; 0.8 nM Jarid1B, H3K4me3-biotin labeled peptide; read-out: JARID1B IC5. An excerpt: This assay determines the ability of a test compound to inhibit Jarid1B, JMJD2C and JMJD3 demethylase activity. Baculovirus expressed Jarid1B (GenBank Accession #NM-006618, AA 2-751) was purchased from BPS Bioscience (Cat #50121) or custom made by MolecularThroughput. Baculovirus expressed JMJD2C (GenBank Accession #BC143571, AA 2-372) was purchased from BPS Bioscience (Cat#50105). Baculovirus expressed JMJD3 (GenBank Accession #NM-001080424, AA1043-end) was purchased from BPS Bioscience (Cat#50115).
The ability of test compounds to inhibit the activity of Jarid1B was determined in 384-well plate format under the following reaction conditions: 0.8 nM Jarid1B, 300 nM H3K4me3-biotin labeled peptide (Anaspec cat #64357), 2 µM alpha-ketoglutaric acid in assay buffer of 50 mM HEPES, pH7.3, 0.005% Brij35, 0.5 mM TCEP, 0.2 mg/ml BSA, 50 µM sodium L-ascorbate, and 2 µM ammonium iron(II) sulfate. Reaction product was determined quantitatively by TR-FRET after the addition of detection reagent Phycolink Streptavidin-allophycocyanin (Prozyme) and Europium-anti-mono-or di-methylated histone H3 lysine 4 (H3K4me1-2) antibody (PerkinElmer) in the presence of 5 mM EDTA in LANCE detection buffer (PerkinElmer) at a final concentration of 25 nM and 1 nM, respectively.
The assay reaction was initiated by the following: 2 µl of the mixture of 900 nM H3K4me3-biotin labeled peptide and 6 µM alpha-ketoglutaric acid with 2 µl of 11-point serial diluted inhibitor in 3% DMSO was added to each well of the plate, followed by the addition of 2 µl of 2.4 nM Jarid1B to initiate the reaction. The reaction mixture was incubated at room temperature for 30 minutes, and terminated by the addition of 6 µl of 5 mM EDTA in LANCE detection buffer containing 50 nM Phycolink Streptavidin-allophycocyanin and 2 nM Europium-anti-H3K4me1-2 antibody. Plates were read by EnVisionMultilabel Reader in TR-FRET mode (excitation at 320 nm, emission at 615 nm and 665 nm) after 1 hour incubation at room temperature. A ratio was calculated (665/615) for each well and fitted to determine inhibition constant (IC50).
A general note: Time-resolved FRET reads energy transfer from a long-lived donor to a nearby acceptor.
Turning to `Fc1ccc2c(c1)CCCC2Cn1cnc(-c2cc(-c3nn[nH]c3C(F)(F)F)ccn2)c1` (centres unmarked) [Example 100, 2-{1-[(6-fluoro-1,2,3,4-tetrahydronaphthalen-1-yl)methyl]-1H-imidazol-4-yl}-4-[5-(trifluoromethyl)-1H-1,2,3-triazol-4-yl]pyridine], the IC50 was at most 0.1 µM. Consider `Cc1ccccc1Cn1cnc(-c2cc(-c3nn[nH]c3C(F)(F)F)ccn2)c1` [Example 66, 2-{1-[(2-methylphenyl)methyl]-1H-imidazol-4-yl}-4-[5-(trifluoromethyl)-1H-1,2,3-triazol-4-yl]pyridine], for which the IC50 is 0.1 to 1 µM. In the case of `Fc1cccc(F)c1Cn1cnc(-c2cc(-c3nn[nH]c3C(F)(F)F)ccn2)c1` [Example 69, 2-{1-[(2,6-difluorophenyl)methyl]-1H-imidazol-4-yl}-4-[5-(trifluoromethyl)-1H-1,2,3-triazol-4-yl]pyridine], the IC50 lay within 0.1 to 1 µM. For `COc1cccc2c1C(Cn1cnc(-c3cc(-c4nn[nH]c4C(F)(F)F)ccn3)c1)CCC2` (centres unmarked) [Example 107, 2-{1-[(8-methoxy-1,2,3,4-tetrahydronaphthalen-1-yl)methyl]-1H-imidazol-4-yl}-4-[5-(trifluoromethyl)-1H-1,2,3-triazol-4-yl]pyridine] the value was 0.1 to 1 µM. For `Fc1cc(F)c(CCn2cnc(-c3cc(-c4nn[nH]c4C(F)(F)F)ccn3)c2)cc1F` [Example 81, 4-[5-(trifluoromethyl)-1H-1,2,3-triazol-4-yl]-2-{1-[2-(2,4,5-trifluorophenyl)ethyl]-1H-imidazol-4-yl}pyridine] the value was at most 0.1 µM; for `COc1ccc2c(c1)CCCC2Cn1cnc(-c2cc(-c3nn[nH]c3C(F)(F)F)ccn2)c1` (centres unmarked) [Example 105, 2-{1-[(6-methoxy-1,2,3,4-tetrahydronaphthalen-1-yl)methyl]-1H-imidazol-4-yl}-4-[5-(trifluoromethyl)-1H-1,2,3-triazol-4-yl]pyridine], 0.1 to 1 µM; for `Fc1ccc(CCn2cnc(-c3cc(-c4nn[nH]c4C(F)(F)F)ccn3)c2)c(F)c1` [Example 86, 2-{1-[2-(2,4-difluorophenyl)ethyl]-1H-imidazol-4-yl}-4-[5-(trifluoromethyl)-1H-1,2,3-triazol-4-yl]pyridine], at most 0.1 µM. For `O=C(c1ccccc1)N1CCC[C@H](n2cnc(-c3cc(-c4nn[nH]c4C(F)(F)F)ccn3)c2)C1` [Example 90, 2-{1-[(3S)-1-benzoylpiperidin-3-yl]-1H-imidazol-4-yl}-4-[5-(trifluoromethyl)-1H-1,2,3-triazol-4-yl]pyridine] the value was at most 0.1 µM; for `FC(F)(F)c1[nH]nnc1-c1ccnc(-c2cn(CC3CCc4ccccc43)cn2)c1` (centres unmarked) [Example 83, 2-{1-[(2,3-dihydro-1H-inden-1-yl)methyl]-1H-imidazol-4-yl}-4-[5-(trifluoromethyl)-1H-1,2,3-triazol-4-yl]pyridine], at most 0.1 µM; for `Fc1ccc(Cn2cnc(-c3cc(-c4nn[nH]c4C(F)(F)F)ccn3)c2)cc1` [Example 61, 2-{1-[(4-fluorophenyl)methyl]-1H-imidazol-4-yl}-4-[5-(trifluoromethyl)-1H-1,2,3-triazol-4-yl]pyridine], 0.1 to 1 µM. Take `FC(F)(F)c1[nH]nnc1-c1ccnc(-c2cn(Cc3ccc(Cl)cc3)cn2)c1` [Example 63, 2-{1-[(4-chlorophenyl)methyl]-1H-imidazol-4-yl}-4-[5-(trifluoromethyl)-1H-1,2,3-triazol-4-yl]pyridine]: the IC50 is 0.1 to 1 µM. For `Cc1ccc2c(c1)CCCC2Cn1cnc(-c2cc(-c3nn[nH]c3C(F)(F)F)ccn2)c1` (centres unmarked) [Example 102, 2-{1-[(6-methyl-1,2,3,4-tetrahydronaphthalen-1-yl)methyl]-1H-imidazol-4-yl}-4-[5-(trifluoromethyl)-1H-1,2,3-triazol-4-yl]pyridine] the value was 0.1 to 1 µM; for `FC(F)(F)c1[nH]nnc1-c1ccnc(-c2cn(CC3CCCc4ccccc43)cn2)c1` (centres unmarked) [Example 58, 2-{1-[(1,2,3,4-tetrahydronaphthalen-1-yl)methyl]-1H-imidazol-4-yl}-4-[5-(trifluoromethyl)-1H-1,2,3-triazol-4-yl]pyridine], at most 0.1 µM.

`Fc1ccc2c(c1)C(n1cnc(-c3cc(-c4nn[nH]c4C(F)(F)F)ccn3)c1)CC2` (centres unmarked) [Example 85, 2-[1-(6-fluoro-2,3-dihydro-1H-inden-1-yl)-1H-imidazol-4-yl]-4-[5-(trifluoromethyl)-1H-1,2,3-triazol-4-yl]pyridine]: the IC50 was at most 0.1 µM.

In the case of `FC(F)(F)c1[nH]nnc1-c1ccnc(-c2cn(CCc3ccc(Cl)cc3)cn2)c1` [Example 92, 2-{1-[2-(4-chlorophenyl)ethyl]-1H-imidazol-4-yl}-4-[5-(trifluoromethyl)-1H-1,2,3-triazol-4-yl]pyridine], the IC50 lay within 0.1 to 1 µM. For `FC(F)(F)c1ccc(CCn2cnc(-c3cc(-c4nn[nH]c4C(F)(F)F)ccn3)c2)cc1` [Example 94, 4-[5-(trifluoromethyl)-1H-1,2,3-triazol-4-yl]-2-(1-{2-[4-(trifluoromethyl)phenyl]ethyl}-1H-imidazol-4-yl)pyridine], the IC50 was 0.1 to 1 µM.

In the case of `Fc1cccc(CCn2cnc(-c3cc(-c4nn[nH]c4C(F)(F)F)ccn3)c2)c1F` [Example 79, 2-{1-[2-(2,3-difluorophenyl)ethyl]-1H-imidazol-4-yl}-4-[5-(trifluoromethyl)-1H-1,2,3-triazol-4-yl]pyridine], the IC50 was at most 0.1 µM. For `Fc1ccccc1CCn1cnc(-c2cc(-c3nn[nH]c3C(F)(F)F)ccn2)c1` [Example 84, 2-{1-[2-(2-fluorophenyl)ethyl]-1H-imidazol-4-yl}-4-[5-(trifluoromethyl)-1H-1,2,3-triazol-4-yl]pyridine] the value was at most 0.1 µM. For `FC(F)(F)c1[nH]nnc1-c1ccnc(-c2cn(CC3CCOc4ccccc43)cn2)c1` (centres unmarked) [Example 98, 2-{1-[(3,4-dihydro-2H-1-benzopyran-4-yl)methyl]-1H-imidazol-4-yl}-4-[5-(trifluoromethyl)-1H-1,2,3-triazol-4-yl]pyridine] the value was at most 0.1 µM.

On to `FC(F)(F)COc1ccccc1Cn1cnc(-c2cc(-c3nn[nH]c3C(F)(F)F)ccn2)c1` [Example 76, 2-(1-{[2-(2,2,2-trifluoroethoxy)phenyl]methyl}-1H-imidazol-4-yl)-4-[5-(trifluoromethyl)-1H-1,2,3-triazol-4-yl]pyridine], for which the IC50 lay within 0.1 to 1 µM. For `Cn1cnc(-c2cc(-c3nn[nH]c3C(F)(F)F)ccn2)c1-c1ccc(F)cc1` [Example 97, 2-[5-(4-fluorophenyl)-1-methyl-1H-imidazol-4-yl]-4-[5-(trifluoromethyl)-1H-1,2,3-triazol-4-yl]pyridine] the value was at most 0.1 µM. For `COc1ccc2c(c1)C(Cn1cnc(-c3cc(-c4nn[nH]c4C(F)(F)F)ccn3)c1)CCC2` (centres unmarked) [Example 106, 2-{1-[(7-methoxy-1,2,3,4-tetrahydronaphthalen-1-yl)methyl]-1H-imidazol-4-yl}-4-[5-(trifluoromethyl)-1H-1,2,3-triazol-4-yl]pyridine] the value was at most 0.1 µM.

Turning to `Cc1ccc(Cn2cnc(-c3cc(-c4nn[nH]c4C(F)(F)F)ccn3)c2)cc1` [Example 65, 2-{1-[(4-methylphenyl)methyl]-1H-imidazol-4-yl}-4-[5-(trifluoromethyl)-1H-1,2,3-triazol-4-yl]pyridine], the IC50 is over 10 µM.
